The source made the active and inactive calls. Unless noted, no cut-off for these calls is given here.
Tests used:
Erythrocyte = assay: FACS-based assay to assess parasite growth inhibition 96 hr Measured in Cell-Based System Using Flow Cytometry - 2126-05_Inhibitor_Dose_DryPowder_Activity. [Related pubchem assays (depositor defined):AID488774]; format: functional; conditions: Homo sapiens
[1] = FACS-based assay to assess parasite growth inhibition 48 hr Measured in Cell-Based System Using Flow Cytometry - 2126-03_Inhibitor_Dose_DryPowder_Activity. [Related pubchem assays (depositor defined):AID488774]; format: functional; conditions: Homo sapiens
[2] = A cell-based HTS for delayed death inhibitors of the malarial parasite plastid Measured in Microorganism System Using Plate Reader - 2126-02_Inhibitor_Dose_DryPowder_Activity.; format: functional, organism-based
[3] = A cell-based HTS for delayed death inhibitors of the malarial parasite plastid Measured in Microorganism System Using Plate Reader - 2126-01_Inhibitor_Dose_DryPowder_Activity.; format: functional, organism-based
[4] = test system: Streptococcus sp. 'group A'; assay: growth inhibition of control SK(-) GAS strain, dose response, counter-screen for streptokinase expression inhibitor project, luminescence, kanamycin, BacTiterGlo, confirmation (AID 1900); format: functional, organism-based
Streptokinase A = biological target: T1, Streptokinase A (Streptococcus pyogenes serotype M1, UniProt P10520); assay: S. pyogenes streptokinase expression inhibitors, potency, dose response, plasminogen activation absorbance, OD405 (AID 1914); format: functional, Streptococcus pyogenes M1 GAS;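 note: secreted streptokinase activity via plasminogen activation per viability signal from cell pellet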
T1 sequence (P10520 whole entry): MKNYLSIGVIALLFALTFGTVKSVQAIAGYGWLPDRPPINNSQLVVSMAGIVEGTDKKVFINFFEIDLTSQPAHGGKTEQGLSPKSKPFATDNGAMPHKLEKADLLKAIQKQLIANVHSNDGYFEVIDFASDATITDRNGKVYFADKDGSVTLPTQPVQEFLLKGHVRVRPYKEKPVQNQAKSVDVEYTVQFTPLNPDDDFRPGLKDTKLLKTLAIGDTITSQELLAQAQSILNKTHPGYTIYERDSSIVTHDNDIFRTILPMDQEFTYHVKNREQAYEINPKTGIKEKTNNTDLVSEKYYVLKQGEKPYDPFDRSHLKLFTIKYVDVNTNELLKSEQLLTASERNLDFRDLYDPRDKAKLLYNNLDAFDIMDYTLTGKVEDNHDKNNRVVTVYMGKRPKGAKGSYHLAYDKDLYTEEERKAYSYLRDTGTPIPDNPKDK

Large T antigen = Large T antigen (Simian virus 40, UniProt P03070); format: functional, Betapolyomavirus macacae;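 note: Confirmatory-stage PubChem screen for compounds that inhibit SV40 T antigen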
Streptococcus = assay: Group A Streptococcus viability loss, dose response, counter-screen for streptokinase expression inhibitor project, luminescence, BacTiterGlo (AID 1915); format: functional, organism-based;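 note: potency for reduction of bacterial viability or growth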
CHO = assay: cytotoxicity in TLR9-MyD88 CHO cells, dose response, cytotoxicity control for TLR9-MyD88 binding inhibitor project, cell-based, luminescence (AID 588339); format: functional, hamster; conditions: Cricetulus griseus;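 note: CHO cells stably coexpressing TLR9 and MyD88 fusions from primary screen; compound exposure lasted 48 hours before viability readout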
Insulin-degrading enzyme [5] = biological target: T2, Insulin-degrading enzyme (Homo sapiens, UniProt P14735); assay: activators of recombinant IDE enzyme, dose response, counter-screen for IDE activator project, biochemical, fluorescence polarization (AID 588681)
T2 sequence (P14735 whole entry): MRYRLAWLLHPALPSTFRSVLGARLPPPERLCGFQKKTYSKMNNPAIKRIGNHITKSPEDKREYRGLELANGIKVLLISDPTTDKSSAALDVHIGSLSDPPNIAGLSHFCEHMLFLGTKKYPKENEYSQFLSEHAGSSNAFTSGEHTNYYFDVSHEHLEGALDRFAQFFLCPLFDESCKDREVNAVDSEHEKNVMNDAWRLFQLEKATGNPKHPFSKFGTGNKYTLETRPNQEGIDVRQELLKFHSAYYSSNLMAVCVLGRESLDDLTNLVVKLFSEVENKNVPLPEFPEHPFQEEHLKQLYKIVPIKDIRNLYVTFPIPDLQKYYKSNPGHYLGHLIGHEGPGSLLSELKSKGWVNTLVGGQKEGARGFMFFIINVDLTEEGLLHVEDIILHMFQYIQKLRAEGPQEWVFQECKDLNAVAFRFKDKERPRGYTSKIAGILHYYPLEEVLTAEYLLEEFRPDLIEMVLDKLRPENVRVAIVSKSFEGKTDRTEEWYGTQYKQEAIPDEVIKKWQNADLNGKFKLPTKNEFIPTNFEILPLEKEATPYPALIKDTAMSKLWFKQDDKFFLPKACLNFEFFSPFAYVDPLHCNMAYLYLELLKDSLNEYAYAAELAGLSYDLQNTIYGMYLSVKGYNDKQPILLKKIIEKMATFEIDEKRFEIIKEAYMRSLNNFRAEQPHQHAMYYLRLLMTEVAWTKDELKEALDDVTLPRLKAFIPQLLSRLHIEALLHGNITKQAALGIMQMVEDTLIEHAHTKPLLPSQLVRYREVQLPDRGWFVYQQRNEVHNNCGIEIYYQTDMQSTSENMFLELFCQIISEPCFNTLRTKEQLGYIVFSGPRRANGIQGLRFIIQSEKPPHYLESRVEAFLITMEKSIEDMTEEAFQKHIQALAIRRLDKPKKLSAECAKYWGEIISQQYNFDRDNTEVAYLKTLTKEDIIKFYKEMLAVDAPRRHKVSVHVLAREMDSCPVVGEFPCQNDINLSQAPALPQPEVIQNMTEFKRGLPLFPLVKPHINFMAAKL

Insulin-degrading enzyme [6] = biological target: T2, Insulin-degrading enzyme; assay: activators of endogenous IDE in HEK cells, dose response, cell-based, fluorescence polarization (AID 588439); format: functional
HEK293 [7] = assay: HEK cell cytotoxicity by LDH release, dose response, cytotoxicity control for IDE activator project, fluorescence, HEK cells (AID 588440); format: functional, cell-based; conditions: Homo sapiens;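 note: cytotoxicity by LDH release measuring loss of membrane integrity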
HEK293 [8] = assay: optical interference in Abeta FP readout, dose response, artefact control for IDE activator project, biochemical, fluorescence polarization (AID 588442); format: functional, cell-based; conditions: Homo sapiens
[9] = biological target: 26S proteasome non-ATPase regulatory subunit 14 (Homo sapiens, UniProt O00487); assay: inhibition of proteasome subunit RPN11 – biochemical, fluorescence polarization, uHTS hits, confirmation (AID 602368); format: functional
[10] = biological target: 72 kDa type IV collagenase (Homo sapiens, UniProt P08253); assay: Dose Response validation of uHTS RPN11 inhibitor hits using a MMP-2 Fluorescence assay.; format: functional
Prothrombin = Prothrombin (Bos taurus, UniProt P00735); assay: thrombin inhibition, dose response, biochemical, fluorescence polarization, uHTS hits (AID 602369); format: functional
[11] = biological target: Melanin-concentrating hormone receptor 1 (Homo sapiens, UniProt Q99705); assay: Late-stage fluorescence-based counterscreen for antagonists of the G-protein coupled receptor 7 (GPR7): cell-based dose response assay to identify antagonists of the melanin-concentrating hormone receptor 1 (MCHR1) Set 5.; format: functional
Chain of Melanin-concentrating hormone receptor 1 (Q99705 whole entry): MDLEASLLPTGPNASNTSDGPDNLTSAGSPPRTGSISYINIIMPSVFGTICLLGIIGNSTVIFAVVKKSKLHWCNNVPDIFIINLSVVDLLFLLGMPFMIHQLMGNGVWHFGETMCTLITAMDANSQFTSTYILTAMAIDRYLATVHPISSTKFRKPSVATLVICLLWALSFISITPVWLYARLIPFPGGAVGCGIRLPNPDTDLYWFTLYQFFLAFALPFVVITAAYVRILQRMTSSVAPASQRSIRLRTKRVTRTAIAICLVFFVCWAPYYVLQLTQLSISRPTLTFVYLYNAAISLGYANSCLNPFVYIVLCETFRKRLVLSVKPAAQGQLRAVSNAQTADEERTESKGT

Chain of 72 kDa type IV collagenase (P08253 whole entry): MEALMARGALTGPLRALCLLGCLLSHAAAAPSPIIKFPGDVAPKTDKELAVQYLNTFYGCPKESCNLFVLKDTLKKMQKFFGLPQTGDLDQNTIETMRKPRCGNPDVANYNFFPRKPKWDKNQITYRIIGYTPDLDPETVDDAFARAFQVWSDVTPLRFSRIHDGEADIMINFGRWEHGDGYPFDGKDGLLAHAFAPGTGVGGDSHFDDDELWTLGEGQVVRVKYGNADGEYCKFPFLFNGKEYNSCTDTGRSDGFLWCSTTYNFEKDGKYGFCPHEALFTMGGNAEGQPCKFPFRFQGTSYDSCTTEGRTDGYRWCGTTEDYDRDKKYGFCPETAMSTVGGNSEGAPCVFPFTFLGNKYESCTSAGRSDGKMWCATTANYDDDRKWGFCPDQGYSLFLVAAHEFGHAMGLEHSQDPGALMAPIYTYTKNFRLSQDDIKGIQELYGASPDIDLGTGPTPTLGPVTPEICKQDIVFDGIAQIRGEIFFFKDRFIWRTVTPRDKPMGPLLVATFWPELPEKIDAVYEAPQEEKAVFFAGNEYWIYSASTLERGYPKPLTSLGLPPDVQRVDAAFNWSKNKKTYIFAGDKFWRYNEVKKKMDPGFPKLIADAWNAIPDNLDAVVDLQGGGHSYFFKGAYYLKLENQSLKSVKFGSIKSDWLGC
Chain of Large T antigen (P03070 whole entry): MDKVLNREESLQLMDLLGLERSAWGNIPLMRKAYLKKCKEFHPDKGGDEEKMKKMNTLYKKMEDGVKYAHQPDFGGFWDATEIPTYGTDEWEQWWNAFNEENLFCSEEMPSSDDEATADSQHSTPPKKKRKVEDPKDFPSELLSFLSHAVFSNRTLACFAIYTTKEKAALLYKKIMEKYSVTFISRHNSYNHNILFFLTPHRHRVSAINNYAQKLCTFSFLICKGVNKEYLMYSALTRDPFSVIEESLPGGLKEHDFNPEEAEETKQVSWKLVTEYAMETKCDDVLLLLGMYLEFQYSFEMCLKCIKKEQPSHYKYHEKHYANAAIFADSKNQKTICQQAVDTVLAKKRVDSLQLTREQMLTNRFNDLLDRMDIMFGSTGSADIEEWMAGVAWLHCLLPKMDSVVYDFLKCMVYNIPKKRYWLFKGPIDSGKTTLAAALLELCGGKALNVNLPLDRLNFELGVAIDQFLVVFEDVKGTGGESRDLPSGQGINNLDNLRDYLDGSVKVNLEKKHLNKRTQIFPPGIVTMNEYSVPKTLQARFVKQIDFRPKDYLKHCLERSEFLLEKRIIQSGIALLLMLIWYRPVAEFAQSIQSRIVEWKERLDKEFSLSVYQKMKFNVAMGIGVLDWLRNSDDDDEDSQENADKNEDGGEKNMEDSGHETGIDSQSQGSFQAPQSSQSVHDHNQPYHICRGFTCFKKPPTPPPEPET
Chain of 26S proteasome non-ATPase regulatory subunit 14 (O00487 whole entry): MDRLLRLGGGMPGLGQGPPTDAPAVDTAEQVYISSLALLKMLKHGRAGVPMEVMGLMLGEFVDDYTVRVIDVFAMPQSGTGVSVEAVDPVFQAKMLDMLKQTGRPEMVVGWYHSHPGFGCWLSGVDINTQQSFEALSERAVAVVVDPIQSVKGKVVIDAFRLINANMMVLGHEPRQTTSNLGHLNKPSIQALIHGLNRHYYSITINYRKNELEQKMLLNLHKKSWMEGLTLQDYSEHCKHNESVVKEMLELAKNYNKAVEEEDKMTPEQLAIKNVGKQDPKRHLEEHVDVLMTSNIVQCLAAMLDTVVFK

**Q.** With `COCCOC(=O)N(C)C[C@@H]1OCCCC[C@H](C)Oc2ccc(NC(=O)Nc3ccccc3)cc2C(=O)N([C@@H](C)CO)C[C@H]1C` as the molecule, how does the AC50 (Erythrocyte) read?
**A.** 13.4 µM (active)

**Q.** What about the AC50 [1] of the same molecule?
**A.** 10.9 µM (active)

**Q.** What about the AC50 [2] of the same molecule?
**A.** > 5 µM (inactive)

**Q.** And the AC50 [3]?
**A.** > 5 µM (inactive)

**Q.** Which EC50 [4] does the source give for `C#CCOCCOCCOCCNc1nc(N2CCN(C(=O)CCCCCCCCCCNC(=O)[C@H](CCCCN)n3cc(C[C@@H](C)CC)nn3)CC2)nc(N2CCN(C(=O)CCCCCCCCCCNC(=O)[C@H](CCCCN)n3cc(C[C@@H](C)CC)nn3)CC2)n1` here?
**A.** 2.86 µM (active)

**Q.** And the EC50 (Streptokinase A)?
**A.** 13.9 µM (active)

**Q.** And the IC50 (Large T antigen)?
**A.** 36.5 µM (active)

**Q.** And the EC50 (Streptococcus)?
**A.** > 150 µM (not active)

**Q.** And the IC50 (CHO)?
**A.** 5.63 µM (active)

**Q.** What about the EC50 (Insulin-degrading enzyme [5]) of the same molecule?
**A.** 9.71 µM (active)

**Q.** What about the EC50 (Insulin-degrading enzyme [6]) of the same molecule?
**A.** > 2.03 µM (active)

**Q.** What about the IC50 (HEK293 [7]) of the same molecule?
**A.** 4.19 µM (active)

**Q.** And the EC50 (HEK293 [8])?
**A.** > 54.7 µM (inactive)

**Q.** What about the IC50 [9] of the same molecule?
**A.** 16.2 µM (active)

**Q.** And the IC50 [10]?
**A.** > 100 µM (inactive)

**Q.** What about the IC50 (Prothrombin) of the same molecule?
**A.** 24.5 µM (active)

**Q.** With `CCc1cccc(Oc2c(Cl)cnn(Cc3cccc4ccccc34)c2=O)c1` as the molecule, how does the IC50 [11] read?
**A.** > 20 µM (inactive)

— ChEMBL document CHEMBL1201862, “PubChem BioAssay data set” (2004)
